Source: patent publication EP1734031A1, “NOVEL 2-(ALPHA-N-PENTANONYL)BENZOETES, THEIR PREPARATION AND USE” (priority 2004, dated 2005)
Several values for one entry are separate records, joined by “and”; a condition that tells them apart may be missing. Identical values can stand only once.

Tests used:
[1] = tested on: model rats of middle cerebral artery thrombosis (MCAT); assay: Effects on cerebral infarct area of MCAT rats (TTC staining); type: in vivo, SD rats; settings: for cerebral infarct compared with the model group (in words): 50 mg/kg, P<0.05
[2] = tested on: thrombosis of artery-vein bypass in rats; assay: Effects on thrombosis of artery-vein bypass in rats; type: in vivo, SD rats; settings: for Dry-weight of thrombus / Wet-weight of thrombus: once per day for 3 days; for Inhibition (dry-weight of thrombus) / Inhibition (wet-weight of thrombus): vs. thrombus model group
[3] = in vivo; settings: mouse, po; for LD50 at 7 days: both, ICR
[4] = tested on: model rats of middle cerebral artery thrombosis (MCAT); assay: Effects on neural symptoms of MCAT rats (behavioral score); type: in vivo, SD rats; settings: for Scores 6 hours: 6 hours after operation; for Scores 6 hours / Scores 24 hours: full mark 4; for Scores 24 hours: 24 hours after operation; for % inhibition at hour 24 / alleviation on neural symptoms at 24 hours after the operation (in words): vs. model group; for alleviation on neural symptoms at 24 hours after the operation (in words): 50 mg/kg, P<0.01 or P<0.05
[5] = Thermal stability (purity by HPLC); settings: 10 days at 60°C
Method: Tests were conducted for 10 days at 60°C in accordance with the testing method as described in Pharmacopoeia of P.R. China, 2000 ed., appendix XIX C of part two, "Guideline for testing the stability of medicament: method for testing thermal stability". The purity was determined in accordance with the test described in Pharmacopoeia of P.R. China, 2000 ed., appendix VD of part two, by using HPLC method, C18 column, mobile phase of acetonitrile:0.02M sodium dihydrogen phosphate = 40:60, detecting wavelength of 230 nm, flow rate of 1 ml/min.

[6] = Stability of aqueous solution (decomposed products by HPLC); type: physicochemical; settings: aqueous solution 0.2 mg/ml, exposed to water for 24 hours
[7] = Stability to light (purity by HPLC); settings: light test, 10 days
Method: Tests were conducted for 10 days in accordance with the testing method as described in Pharmacopoeia of P.R. China, 2000 ed., appendix XIX C of part two, "Guideline for testing the stability of medicament: method for testing stability to light". The purity was determined in accordance with the test described in Pharmacopoeia of P.R. China, 2000 ed., appendix VD of part two, by using HPLC method, C18 column, mobile phase of acetonitrile:0.02M sodium dihydrogen phosphate = 40:60, detecting wavelength of 230 nm, flow rate of 1 ml/min.

[8] = 50 mg/kg by gavage, 24 hours after operation
[9] = 50 mg/kg by gavage, vs. model group
[10] = 100 mg/kg by gavage, 24 hours after operation
[11] = 100 mg/kg by gavage, vs. model group
[12] = 200 mg/kg by gavage, 24 hours after operation
[13] = 200 mg/kg by gavage, vs. model group

Row | SMILES | Dry-weight of thrombus ([2]; 50 mg/kg by gavage) [mg] | Wet-weight of thrombus ([2]; 50 mg/kg by gavage) [mg] | Inhibition (dry-weight of thrombus) ([2]; 50 mg/kg) [%] | Inhibition (wet-weight of thrombus) ([2]; 50 mg/kg) [%] | Scores 6 hours ([4]; 50 mg/kg by gavage) | Scores 24 hours ([4]; 50 mg/kg by gavage) | % inhibition at hour 24 ([4]; 50 mg/kg by gavage) [%] | Scores 6 hours ([4]; 100 mg/kg by gavage) | Scores 24 hours ([4]; 100 mg/kg by gavage) | % inhibition at hour 24 ([4]; 100 mg/kg by gavage) [%] | Scores 6 hours ([4]; 200 mg/kg by gavage) | Scores 24 hours ([4]; 200 mg/kg by gavage) | % inhibition at hour 24 ([4]; 200 mg/kg by gavage) [%] | Cerebral infarct tissue weight/total brain weight [1, 8] [%] | Inhibition (cerebral infarct) [1, 9] [%] | Cerebral infarct tissue weight/total brain weight [1, 10] [%] | Inhibition (cerebral infarct) [1, 11] [%] | Cerebral infarct tissue weight/total brain weight [1, 12] [%] | Inhibition (cerebral infarct) [1, 13] [%] | alleviation on neural symptoms at 24 hours after the operation (in words) [4] | other results
1 | CCC/C=C1/OC(=O)c2ccccc21 [3-n-butenylphthalide] | 28.6 ± 9.6 | 169.9 ± 28.8 | 24.74 | 19.59 | 3.50±0.53 | 3.40±0.52 | 6.59 | 3.36±0.81 | 2.91±0.70 | 21.98 | 3.36±0.67 | 3.00±0.63 | 19.57 |  |  |  |  |  |  |  | Cerebral infarct tissue weight/total brain weight ([1]; rat, in vivo): 5.90±1.50% and 5.49±2.14 %; Inhibition (cerebral infarct) ([1]; rat, in vivo): 20.38% and 28.84% and 27.86%; Dry-weight of thrombus ([2]; 100 mg/kg by gavage): 22.9 ± 11.9 mg; Wet-weight of thrombus ([2]; 100 mg/kg by gavage): 137.5 ± 47.4 mg; Inhibition (dry-weight of thrombus) ([2]; 100 mg/kg): 39.74%; Inhibition (wet-weight of thrombus) ([2]; 100 mg/kg): 34.93%; Dry-weight of thrombus ([2]; 200 mg/kg by gavage): 24.9 ± 12.3 mg; Wet-weight of thrombus ([2]; 200 mg/kg by gavage): 141.6 ± 41.2 mg; Inhibition (dry-weight of thrombus) ([2]; 200 mg/kg): 34.47%; Inhibition (wet-weight of thrombus) ([2]; 200 mg/kg): 32.99%; LD50 at 168 h [3]: 2570 mg/kg
2 | CCCCC(O)c1ccccc1C(=O)O (stereo not drawn) [N,N'-dibenzylethylenediamine 2-(α-hydroxypentyl)benzoate] [listing 1 of 2 here] |  |  |  |  |  | 3.09±0.54 | 15.11 |  | 2.91±0.70 |  | 3.36±0.67 | 2.82±0.87 | 24.40 | 5.85±2.32 | 21.05 | 5.50±1.82 | 30.73 | 5.09±2.14 | 33.11 | significantly alleviation | 
3 | CCCCC(O)c1ccccc1C(=O)O (stereo not drawn) [N,N'-dibenzylethylenediamine 2-(α-hydroxypentyl)benzoate] [listing 2 of 2 here] |  |  |  |  |  |  |  |  |  |  |  |  |  |  |  |  |  |  |  |  | LD50 at 168 h [3]: 2810 mg/kg
4 | CCCCC1OC(=O)c2ccccc21 (racemic) [DL-3-n-butylphthalide] |  |  |  |  | 3.36±0.81 | 3.09±0.54 | 15.11 | 3.36±0.50 | 3.09±0.70 | 17.16 | 3.36±0.67 | 3.00±0.89 | 19.57 | 5.66±2.81 | 23.62 | 5.81±1.49 | 26.83 | 5.52±1.78 | 27.46 | significantly alleviation | LD50 at 168 h [3]: 2190 mg/kg
5 | CCCCC(O)c1ccccc1C(=O)O (stereo not drawn) [Calcium 2-(α-hydroxypentyl)benzoate] |  |  |  |  | 3.45±0.52 | 3.36±0.50 | 7.69 | 3.55±0.52 | 3.09±0.70 | 17.16 | 3.45±0.52 | 2.91±0.54 | 21.98 | 6.39±2.33 | 13.77 | 5.82±1.90 | 26.70 | 5.41±1.77 | 28.91 |  | 
6 | CCCCC(=O)c1ccccc1C(=O)[O-].[K+] [Potassium 2-(α-n-pentanonyl)benzoate, potassium 2-(α-n-pentanonyl)benzoate] | 38.3 ± 15.4 | 208.8 ± 45.3 | 25.34 | 19.44 | 3.27±0.79 | 2.91±0.70 | 20.05 | 3.36±0.67 | 2.82±0.75 | 24.40 | 3.20±0.63 | 2.10 ± 0.32 s | 43.70 | 5.63±1.52 | 24.02 | 5.09±2.04 | 35.89 | 4.38±1.54 | 42.44 | significantly alleviation | decomposed product (thermal stability) [5]: no decomposed product; decomposed product [6]: no decomposed product; cerebral infarct compared with the model group (in words) [1]: significantly reduced; Dry-weight of thrombus ([2]; 100 mg/kg by gavage): 35.6 ± 14.0 mg; Wet-weight of thrombus ([2]; 100 mg/kg by gavage): 192.6 ± 41.2 mg; Inhibition (dry-weight of thrombus) ([2]; 100 mg/kg): 30.60%; Inhibition (wet-weight of thrombus) ([2]; 100 mg/kg): 25.69%; Dry-weight of thrombus ([2]; 200 mg/kg by gavage): 28.3 ± 16.3 mg; Wet-weight of thrombus ([2]; 200 mg/kg by gavage): 157.0 ± 51.4 mg; Inhibition (dry-weight of thrombus) ([2]; 200 mg/kg): 44.8%; Inhibition (wet-weight of thrombus) ([2]; 200 mg/kg): 39.43%; Inhibition (dry-weight of thrombus) ([2]; 200 mg/kg, listed as potassium 2-(α-n-pentanonyl)benzoate): 44.83%; LD50 at 7 days [3]: 2720 mg/kg; decomposed product (stability to light) [7]: no decomposed product
7 | CCCCC(=O)c1ccccc1C(=O)[O-].[Na+] [Sodium 2-(α-n-pentanonyl)benzoate, sodium 2-(α-n-pentanonyl)benzoate] | 26.2 ± 9.7 | 138.8 ± 41.1 | 31.05 | 34.31 | 3.40±0.70 | 3.00±0.67 | 17.58 | 3.10±0.74 | 2.80±0.79 | 24.93 | 3.27±0.65 | 2.82±0.40 | 24.40 | 5.26±2.26 | 29.01 | 4.99±1.83 | 37.16 | 5.19±2.40 | 31.80 | significantly alleviation | decomposed product (thermal stability) [5]: no decomposed product; decomposed product [6]: no decomposed product; cerebral infarct compared with the model group (in words) [1]: significantly reduced; Dry-weight of thrombus ([2]; 100 mg/kg by gavage): 19.7 ± 7.8 mg; Wet-weight of thrombus ([2]; 100 mg/kg by gavage): 115.4 ± 42.3 mg; Inhibition (dry-weight of thrombus) ([2]; 100 mg/kg): 48.16%; Inhibition (wet-weight of thrombus) ([2]; 100 mg/kg): 45.39%; Dry-weight of thrombus ([2]; 200 mg/kg by gavage): 22.4 ± 10.1 mg; Wet-weight of thrombus ([2]; 200 mg/kg by gavage): 131.1 ± 48.0 mg; Inhibition (dry-weight of thrombus) ([2]; 200 mg/kg): 41.05%; Inhibition (wet-weight of thrombus) ([2]; 200 mg/kg): 37.96%; LD50 at 7 days [3]: 2650 mg/kg; decomposed product (stability to light) [7]: no decomposed product
